Data from patent publication US10947252B2, “Inhibitors of KEAP1-Nrf2 protein-protein interaction” (Janssen Pharmaceutica NV, priority 2018, dated 2021).

Experiments:
[1] = target: Kelch domain of human KEAP1 (321-624 aa) (Homo sapiens (Human), UniProt Q14145); test: KEAP1 KELCH ThermoFluor binding assay; settings: KEAP Kelch […], 1,8-ANS, pH 7.0, average of results obtained, read-out: Tf Kd;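 note: Ligand-induced melting temperature shift of E. coli-expressed KEAP1 Kelch protein, Kd estimated from concentration-response curves of ΔTm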
[2] = test system: Glo-Response ARE-luc2P HEK293 cell line; test: ARE luciferase reporter cell-based assay; settings: average of results obtained;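 note: luciferase signal tracks Nrf2 activation of the ARE once compounds disrupt KEAP1-Nrf2 binding, read with One-Glo reagent, DMSO serving as low control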

Sequence of Kelch domain of human KEAP1 (321-624 aa) (Q14145 321-624): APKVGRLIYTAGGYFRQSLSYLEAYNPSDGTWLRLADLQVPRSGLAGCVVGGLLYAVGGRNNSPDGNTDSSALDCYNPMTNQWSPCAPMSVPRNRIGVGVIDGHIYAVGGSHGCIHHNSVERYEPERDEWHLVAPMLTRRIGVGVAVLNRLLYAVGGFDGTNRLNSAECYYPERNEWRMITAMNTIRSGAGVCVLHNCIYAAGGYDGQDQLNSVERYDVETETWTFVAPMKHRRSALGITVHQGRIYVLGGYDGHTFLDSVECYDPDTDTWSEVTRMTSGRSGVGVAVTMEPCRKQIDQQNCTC

Compound	Kd [1] [nM]	EC50 ([2]; Homo sapiens, HEK293, 24 h) [nM]	EC50 ([2]; 24 hours) [nM]
Cc1ccc(C(CC(=O)O)c2ccc3c(nnn3C3CC3)c2C)cc1CN1C[C@@]2(C)CCCN2c2ncccc2S1(=O)=O (mixture of isomers) [Example 221, (R/S)-3-(1-Cyclopropyl-4-methyl-1H-benzo[d][1,2,3]triazol-5-yl)-3-(4-methyl-3-(((*R)-7a-methyl-5,5-dioxido-7a,8,9,10-tetrahydropyrido[2,3-f]pyrrolo[2,1-d][1,2,5]thiadiazepin-6(7H)-yl)methyl)phenyl)propanoic Acid]	19	580	–
Cc1cnc2c(c1)S(=O)(=O)N(Cc1cc([C@@H](c3ccn4c(C(F)(F)F)nnc4c3C)C(C)(C)C(=O)O)ccc1C)CC1(CNC1)O2 (single isomer, unassigned) [Example 342, (*S)-2,2-Dimethyl-3-(4-methyl-3-((8′-methyl-1′,1′-dioxidospiro[azetidine-3,4′-pyrido[2,3-b][1,4,5]oxathiazepin]-2′(3′H)-yl)methyl)phenyl)-3-(8-methyl-3-(trifluoromethyl)-[1,2,4]triazolo[4,3-a]pyridin-7-yl)propanoic Acid]	< 1	5.6	–
Cc1cnc2c(c1)S(=O)(=O)N(Cc1cc([C@@H](CC(=O)O)c3ccn4c(C(F)(F)F)nnc4c3C)cnc1C)CC1(CC1)O2 (single isomer, unassigned) [Example 563, (*S)-3-(8-Methyl-3-(trifluoromethyl)-[1,2,4]triazolo[4,3-a]pyridin-7-yl)-3-(6-methyl-5-((8′-methyl-1′,1′-dioxidospiro[cyclopropane-1,4′-pyrido[2,3-b][1,4,5]oxathiazepin]-2′(3′H)-yl)methyl)pyridin-3-yl)propanoic Acid]	21	> 20000	–
COc1ccc2c(n1)OC1(CCOCC1)CN(Cc1cc([C@H](c3ccn4c(C(F)F)nnc4c3C)C(C)(C)C(=O)O)ccc1C)S2(=O)=O (single isomer, unassigned) [Example 583, (*R)-3-(3-(Difluoromethyl)-8-methyl-[1,2,4]triazolo[4,3-a]pyridin-7-yl)-3-(3-((7′-methoxy-1′,1′-dioxido-2,3,5,6-tetrahydrospiro[pyran-4,4′-pyrido[2,3-b][1,4,5]oxathiazepin]-2′(3′H)-yl)methyl)-4-methylphenyl)-2,2-dimethylpropanoic Acid]	1610	766	–
Cc1ccc([C@H](c2ccn3c(C(F)(F)F)nnc3c2C)C(C)(C)C(=O)O)cc1CN1CC2(CCOCC2)Oc2nc(CCC(=O)NCCO)ccc2S1(=O)=O (single isomer, unassigned) [Example 128, (*R)-3-(3-((7′-(3-((2-Hydroxyethyl)amino)-3-oxopropyl)-1′,1′-dioxido-2,3,5,6-tetrahydrospiro[pyran-4,4′-pyrido[2,3-b][1,4,5]oxathiazepin]-2′(3′H)-yl)methyl)-4-methylphenyl)-2,2-dimethyl-3-(8-methyl-3-(trifluoromethyl)-[1,2,4]triazolo[4,3-a]pyridine-7-yl)propanoic Acid]	< 1	308	–
Cc1ccc([C@H](CC(=O)O)c2ccc3c(nnn3C3CC3)c2C)cc1CN1C[C@H]2CCCN2c2ncccc2S1(=O)=O (single isomer, unassigned) [Example 210, (*S)-3-(1-Cyclopropyl-4-methyl-1H-benzo[d][1,2,3]triazol-5-yl)-3-(3-(((R)-5,5-dioxido-7a,8,9,10-tetrahydropyrido[2,3-f]pyrrolo[2,1-d][1,2,5]thiadiazepin-6(7H)-yl)methyl)-4-methylphenyl)propanoic Acid]	< 1	7.7	–
Cc1cnc2c(c1)S(=O)(=O)N(Cc1cc([C@@H](c3ccn4c(C(F)F)nnc4c3C)C(C)(C)C(=O)O)ccc1C)CC1(CC1)O2 (single isomer, unassigned) [Example 560, (*S)-3-(3-(Difluoromethyl)-8-methyl-[1,2,4]triazolo[4,3-a]pyridin-7-yl)-2,2-dimethyl-3-(4-methyl-3-((8′-methyl-1′,1′-dioxidospiro[cyclopropane-1,4′-pyrido[2,3-b][1,4,5]oxathiazepin]-2′(3′H)-yl)methyl)phenyl)propanoic Acid]	< 1	1.9	–
Cc1cnc2c(c1)S(=O)(=O)N(Cc1cc([C@@H](c3ccn4c(C(F)F)nnc4c3C)C(C)(C)C(=O)O)ccc1C)CC1(CCOCC1)O2 (single isomer, unassigned) [Example 576, (*S)-3-(3-(Difluoromethyl)-8-methyl-[1,2,4]triazolo[4,3-a]pyridin-7-yl)-2,2-dimethyl-3-(4-methyl-3-((8′-methyl-1′,1′-dioxido-2,3,5,6-tetrahydrospiro[pyran-4,4′-pyrido[2,3-b][1,4,5]oxathiazepin]-2′(3′H)-yl)methyl)phenyl)propanoic Acid]	< 1	2.34	–
Cc1ccc([C@H](CC(=O)O)c2ccc3c(nnn3C)c2C(F)F)cc1CN1CC2CCCN2c2ncccc2S1(=O)=O (single isomer, unassigned) [Example 72, (*S)-3-(4-(Difluoromethyl-1-methyl-1H-benzo[d][1,2,3]triazol-5-yl)-3-(3-(((R-5,5-dioxido-7a,8,9,10-tetrahydropyridi[2,3-f]pyrrolo[2,1-d][1,2,5]thiadiazepin-6(7H)-yl)methyl)-4-methylphenyl)propanoic Acid]	5.4	–	1970
Cc1ccc([C@@H](CC(=O)O)c2ccn3c(C(F)F)nnc3c2C)cc1CN1CC2(CC2)Oc2ncc(C(N)=O)cc2S1(=O)=O (single isomer, unassigned) [Example 553, (*R)-3-(3-((8′-Carbamoyl-1′,1′-dioxidospiro[cyclopropane-1,4′-pyrido[2,3-b][1,4,5]oxathiazepin]-2′(3′H)-yl)methyl)-4-methylphenyl)-3-(3-(difluoromethyl)-8-methyl-[1,2,4]triazolo[4,3-a]pyridin-7-yl)propanoic Acid]	769	> 20000	–
Cc1ccc([C@@H](CC(=O)O)c2ccc3c(nnn3CC3CC3)c2C)cc1CN1C[C@H]2CCCN2c2ncccc2S1(=O)=O (single isomer, unassigned) [Example 401, (*R)-3-(1-(Cyclopropylmethyl)-4-methyl-1H-benzo[d][1,2,3]triazol-5-yl)-3-(3-(((R)-5,5-dioxido-7a,8,9,10-tetrahydropyrido[2,3-f]pyrrolo[2,1-d][1,2,5]thiadiazepin-6(7H)-yl)methyl)-4-methylphenyl)propanoic acid]	< 1	2.7	–
Cc1cnc([C@H](c2ccn3c(C(F)F)nnc3c2C)C(C)(C)C(=O)O)cc1CN1CC2(CC2)Oc2nc(OCCN3CCCC3)c(C)cc2S1(=O)=O (single isomer, unassigned) [Example 635, (*R)-3-(3-(Difluoromethyl)-8-methyl-[1,2,4]triazolo[4,3-a]pyridin-7-yl)-2,2-dimethyl-3-(5-methyl-4-((8′-methyl-1′,1′-dioxido-7′-(2-(pyrrolidin-1-yl)ethoxy)spiro[cyclopropane-1,4′-pyrido[2,3-b][1,4,5]oxathiazepin]-2′(3′H)-yl)methyl)pyridin-2-yl)propanoic Acid]	1190	3590	–
